Data set [1] deals with culture-activated rat primary HSCs. Briefly: Morphologic reversal of culture-activated HSCs (phase contrast / UV autofluorescence microscopy). The data set is classed as cell-based. Particulars: concentration of 135 and 270 μM.
Data set [2] has the same test system. Briefly: Real time quantitative PCR of cultured HSCs. The format is cell-based. Particulars: for expression of Necdin / expression of Wnt3a / expression of Wnt10b: 270 μM, day 7 HSCs vs vehicle; for EZH2 expression: day 7 HSCs, RA or BC. The source says:
HSCs were isolated from normal male Wistar rats, C57B1/6 and Coll-GFP mice by in situ digestion of the liver and arabinogalactan gradient ultracentrifugation by the Non-Parenchymal Liver Cell Core of the Southern California Research Center for ALPD and Cirrhosis as described previously in Cheng J H et al,. Wnt antagonism inhibits hepatic stellate cell activation and liver fibrosis, Am J Physiol Gastrointest Liver Physiol, 2007 Nov 15; and Zhu N L et al., The […] pathway causes epigenetic peroxisome proliferator-activated receptor gamma repression in hepatic stellate cells, J Biol Chem, 2010 Oct 1; 285(40):30463-30471, both of which are incorporated by reference herein in their entirety as though fully set forth. The purity of the cells, as determined by phase contrast microscopy and ultraviolet-excited fluorescence microscopy, exceeded 96%, and the viability as determined by trypan blue exclusion exceeded 94%. In vitro activation of HSCs was achieved by culturing rat HSCs in Dulbecco's modified Eagle's medium (DMEM) with 1.0 g/liter glucose, 10% fetal bovine serum and 1% antibiotics on plastic dish for 3, 5 or 7 days. Culture-activated rat primary HSCs were treated with the YGW or starch (control) aqueous extract at 25% (v/v). To obtain the extract, the YGW or starch powder (provided by S.P. Pharmaceutics Inc.) was suspended in DMEM at the concentration of 35 mg/ml, mixed thoroughly with a vortex for 5 min, and centrifuged at ×150 g for 30 min to collect the supernatant. This supernatant was designated as 100% extract and used after filter-sterilization. RA and BC (Sigma Chemical Co) were dissolved in DMSO and tested at the concentration of […]. Total RNA was extracted from the cells using TRIzol reagent (Invitrogen) or RNeasy Mini kit (Qiagen). One microgram of RNA was reverse transcribed to cDNA by using SuperScript III First-Strand Synthesis System (Invitrogen) and amplified by 40 cycles using primers listed below and the SYBR Green PCR Master mix reagent (AB Applied Biosystem). Each threshold cycle (Ct) value was first normalized to the 36B4 Ct value of a sample and subsequently compared between the treatment and control samples.

Data set [3] has as its system Pparγ gene. Description: Chromatin immunoprecipitation (ChIP) at the Pparγ gene in HSCs. The data set is classed as cell-based, rat. The following applies: day 7 HSCs, RA or BC. On the procedure:
For assessing Pparγ epigenetic regulation, carrier ChIP was performed using Raji cells as the source of carrier chromatin. For native ChIP, 20 μg of HSC chromatin was mixed with 80 μg of Raji cell chromatin. For cross-link ChIP, Raji cells (1.4×10^7 cells) were mixed to HSCs (0.2×10^6 cells) and fixed with 1% formaldehyde on the rotating platform for 5-10 minutes at room temperature followed by addition of glycine to a final concentration of 0.125M. After lysis of the cells with SDS buffer (1% SDS, 10 mM EDTA, 50 mM Tris-HCl pH8.1) with protease inhibitors, the lysates were sonicated and snap frozen in aliquots. For chromatin IP, diluted samples were first pre-cleared using protein G-agarose beads and then incubated with antibody against […], MeCP2, H3K27me2, H3K4me2 and […] (Abcam) at 1 μg/μl at 4° C. for overnight followed by precipitation with protein G agarose beads. After elution of immunoprecipitated complex, crosslinking was reversed with 5N NaCl and proteins digested with protease K. Extracted chromatin was subjected to real-time PCR using the primers flanking a segment within Pparγ promoter or exon as previously described in Mann J et al., MeCP2 controls an epigenetic pathway that promotes myofibroblast transdifferentiation and fibrosis, Gastroenterology, 2010 Feb; 138(2):705-14, 714, which is incorporated herein by reference as though fully set forth. Ct values of the samples with non-immune IgG were subtracted and compared to their respective input Ct values.

For data set [4], the system named is rat HSCs. Briefly: Immunoblot analysis of cultured HSCs. The data set is classed as cell-based. The following applies: day 7 HSCs, RA or BC. The procedure:
Whole cell extracts were prepared as previously described in Hazra S. et al., Peroxisome proliferator-activated receptor gamma induces a phenotypic switch from activated to quiescent hepatic stellate cells, J Biol Chem, 2004 Mar 19; 279 (12):11392-11401, which is incorporated by reference herein as though fully set forth. Equal amounts of the extract (20 μg) were separated by 8-15% SDS-PAGE and the proteins were transferred to nitrocellulose membranes (Bio-Rad, Hercules, Calif.). MeCP2, type I collagen, and β-actin were detected by incubating with rabbit polyclonal anti-MeCP2 (1:1000) (Abcam), antitype I collagen (1:4000), and anti-β-actin (1:5000) primary antibodies (Santa Cruz Biotechnology) in TBS (100 mM Tris-HCl, 1.5 M NaCl, pH 7.4) with 5% nonfat milk overnightat 4° C. followed by incubation with horseradish peroxidase conjugated goat anti-rabbit secondary antibodies (1:4000) (Sigma) at room temperature for 2 hr. The antigen-antibody complexes' chemiluminescence was detected by using the ECL detection kit (Pierce).

For data set [5], the system named is TOPFLASH promoter activity in rat primary HSCs. Briefly: TOPFLASH TCF promoter-luciferase reporter, transient transfection by electroporation. The format is cell-based. The following applies: day 7 primary HSCs. On the procedure: TCF promoter-luciferase construct TOPFLASH (a gift from Dr. Randall Moon, Univ. of Washington, Seattle, Wash.) or a KB luciferase construct was used for transient transfection in the rat primary HSCs by electroporation using the NeonTM Transfection System (Invitrogen). The Renilla pRL-TK construct was used for standardization for transfection efficiency. Cell lysates were analyzed by the dual luciferase assay (Promega) on a luminometer. To assess the activity of IKK, IKK was immunoprecipitated by IKKα antibody and protein G-Sepharose, and the assay was performed at 30° C. for 1 hr in buffer containing 20 mM Tris HCl, pH 7.5, 20 mM MgCl2, 2 mM dithiothreitol, 20 μM ATP, 2 μg GST-IκBα, and [γ-32P]ATP. The reaction was stopped by addition of […] buffer and was resolved by 10% SDS-PAGE followed by a transfer onto a membrane for imaging.

Data set [6] concerns BDL-induced cholestatic liver fibrosis in mice. Description: Bile duct ligation (BDL) cholestatic liver fibrosis model. The data set is classed as in vivo. The procedure:
Male C57B1/6 and collagen α1(I) promoter-GFP (Coll-GFP) mice were subjected to ligation and scission of the common bile duct (BDL) to induce cholestatic liver fibrosis for HSC isolation or testing the therapeutic efficacy of RA. For the latter, after one week following BDL, RA was intraperitoneally injected daily at the dose of 0.1 mg/25 g body weight until the animals were sacrificed one week later for Sirius-red staining morphometry, immunohistochemistry, and qPCR analysis of the livers as described below.
After 3 days of the extract treatment, the cells were washed with cold phosphate-buffered saline (PBS) and fixed in 4% paraformaldehyde (PF). To stain α-smooth muscle actin (SMA), a fluorescein isothiocyanate (FITC) conjugated antibody (1:200, Sigma, Saint Louis, Mo.) was added as a primary antibody at 4° C. for overnight. After washing and blocking with 5% nonfat milk, fluorescence images were viewed by a Nikon microscope as described above. For intracellular lipid staining, HSCs treated with the extract for 3 days were cultured with retinol (5 μM) and palmitic acid (100 μM) (Sigma, Saint Louis, Mo.) for 48 hr, and fixed with 10% formalin in PBS. Oil Red O (0.5% w/v in isopropanol) was diluted with 67% volume of water, filtered, and added to the fixed HSCs. Apoptosis was detected in cultured HSCs and liver sections from BDL mice using a Cell Death Detection kit from Roche. For liver section immunostaining, liver tissues were fixed with 4% PF and embedded in freezing medium. Cryosections (7 μm) were washed with PBS, digested with 20 μg/ml proteinase K (Invitrogen, Carlsbad, Calif.), and blocked with 5% goat serum and 0.2% bovine serum albumin. The sections were then incubated with mouse anti-SMA antibody conjugated with FITC (Sigma, 1:400) and rabbit anti-desmin antibody (Thermo Scientific, Rockford, Ill., 1:400). After washing, the sections were incubated with goat anti-rabbit antibody conjugated with AlexaFluor 568 (Invitrogen, 1:400) and mouse anti-FITC antibody conjugated with DyLight 488 (Jackson ImmunoResearch, West Grove, Pa., 1:400). The sections were mounted with 4,6-diamidino-2-phenylindole (DAPI) (Invitrogen) and fluorescence images were visualized under a microscope. To quantify the percentage and density of HSCs in the liver after BDL with or without treatment of RA, 6 images were randomly captured using a 10× objective lens in 3 different sections and SMA+ and desmin+HSCs in the parenchyma were counted.
Total RNA was extracted from the cells using TRIzol reagent (Invitrogen) or RNeasy Mini kit (Qiagen). One microgram of RNA was reverse transcribed to cDNA by using SuperScript III First-Strand Synthesis System (Invitrogen) and amplified by 40 cycles using primers listed below and the SYBR Green PCR Master mix reagent (AB Applied Biosystem). Each threshold cycle (Ct) value was first normalized to the 36B4 Ct value of a sample and subsequently compared between the treatment and control samples.

Where [7] appears, read: RA ip daily 0.1 mg/25 g, immunohistochemistry SMA/Desmin, vs vehicle.
The mark [8] stands for this setting: RA ip daily 0.1 mg/25 g, vs vehicle.

For `O=C(/C=C/c1ccc(O)c(O)c1)O[C@H](Cc1ccc(O)c(O)c1)C(=O)O` [RA, rosmarinic acid], the “morphologic reversal of activated HSCs with increased UV-excited autofluorescence” value in data set [1] is “morphologically reverse activated HSCs to quiescent cells”. For the same molecule, in data set [2], the “expression of Necdin” value is given as “reduced”, the “expression of Wnt3a” value is “suppress”, the “expression of Wnt10b” value was “suppress” and the EZH2 expression entry is given as “reduce”. Further, in data set [3], the “H3K27me2 at the Pparγ exon” value was “reduce” and the “MeCP2 enrichment in the Pparγ promoter” value is “reduce”. Moreover, the MeCP2 protein level entry in data set [4] was “reduce”. In addition, the TOPFLASH activity entry in data set [5] was “suppress”. For the same molecule, in data set [6] (RA ip daily 0.1 mg/25 g), the “TUNEL+HSCs or hepatocytes in the liver parenchyma” value is reported as “No TUNEL+HSCs or hepatocytes are detected” and the “density of Desmin+HSCs (increased by BDL)” value is on record as “no effect”. Also, the “liver to body weight percentage” value in data set [6] (RA ip daily 0.1 mg/25 g body weight during second week of BDL) amounted to 6.8 ± 0.7. The “plasma ALT levels” value in data set [6] (RA ip daily 0.1 mg/25 g body weight during second week, p=0.29 vs vehicle) is on record as 157+71. For the same molecule, the “liver fibrosis by digital morphometric analysis of Sirius red-stained collagen fibers” value in data set [6] (RA ip daily 0.1 mg/25 g body weight during second week, vs vehicle) is “significant attenuation”. Besides, in data set [6] (setting [7]), the “reduction of the percentage of SMA+HSCs” value is reported as 75% and the “reduction of the percentage of SMA+MFs” value was determined as 40%. Further, in data set [6] (setting [8]), the “hepatic mRNA level of SMA” value is on record as “significantly reduced” and the “hepatic mRNA level of α1(I) procollagen” value was “significantly reduced”.
Consider `O=C(O)[C@H]1O[C@@H](Oc2cc3oc(-c4ccccc4)cc(=O)c3c(O)c2O)[C@H](O)[C@@H](O)[C@@H]1O` [BC, baicalin], for which the “morphologic reversal of activated HSCs with increased UV-excited autofluorescence” value in data set [1] is reported as “morphologically reverse activated HSCs to quiescent cells”. Further, in data set [2], the “expression of Necdin” value is reported as “reduced”, the “expression of Wnt3a” value is recorded as “suppress”, the “expression of Wnt10b” value was “suppress” and the EZH2 expression result is “reduce”. For the same molecule, in data set [3], the “H3K27me2 at the Pparγ exon” value was “reduce” and the “MeCP2 enrichment in the Pparγ promoter” value is given as “reduce”. In addition, the MeCP2 protein level result in data set [4] is given as “reduce”. Also, in data set [5], the TOPFLASH activity entry is listed as “suppress”.

Source of the values: patent US20160106770A1, “EPIGENETIC MECHANISMS OF ANTI-FIBROTIC ACTION FOR THE LIVER” (University of Southern California, priority 2011, published 2016).
